# Values joined by “and” are separate entries in the source; they are usually repeats but may differ in a detail not shown here. Equal values may be shown once.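 Protocol summary: plate cells (96-well), add compound at 5 concentrations, incubate 48 h, interpolate endpoints linearly. The concentration for 50% growth inhibition is given as GI50. TGI: concentration producing complete growth inhibition.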
# Columns and labels:
# Assay in all cases: growth of human tumour cells (NCI), 48 h
# HOP-62 NSCLC = test system: HOP-62 NSCLC
# MOLT-4 leukemia = test system: MOLT-4 leukemia
# NCI-H226 lung = test system: NCI-H226 lung
# OVCAR-3 ovarian = test system: OVCAR-3 ovarian
# PC-3 prostate = test system: PC-3 prostate
# SK-MEL-5 melanoma = test system: SK-MEL-5 melanoma
# SW-620 colon = test system: SW-620 colon
# TK-10 renal = test system: TK-10 renal
# UACC-62 melanoma = test system: UACC-62 melanoma
# UO-31 renal = test system: UO-31 renal
Structure (SMILES),TGI (HOP-62 NSCLC),TGI (MOLT-4 leukemia),TGI (NCI-H226 lung),TGI (OVCAR-3 ovarian),TGI (PC-3 prostate),TGI (SK-MEL-5 melanoma),TGI (SW-620 colon),TGI (TK-10 renal),TGI (UACC-62 melanoma),TGI (UO-31 renal),GI50 (HOP-62 NSCLC),GI50 (MOLT-4 leukemia),GI50 (NCI-H226 lung),GI50 (OVCAR-3 ovarian),GI50 (PC-3 prostate),GI50 (SK-MEL-5 melanoma),GI50 (SW-620 colon),GI50 (TK-10 renal),GI50 (UACC-62 melanoma),GI50 (UO-31 renal)
O=C1c2ccccc2-c2c1c1ccccc1c(=O)n2CCO,32.5 µM,9.36 µM,> 38.1 µM,> 100 µM,> 100 µM,33.1 µM,> 100 µM,> 100 µM,> 59.5 µM,> 81 µM,,,,,,,,,,
Nc1cccc2c1C(=O)N(C1CCC(=O)NC1=O)C2=O (configuration not stated),> 100 µM,> 100 µM,> 100 µM,> 100 µM,> 100 µM,> 100 µM,> 100 µM,> 100 µM,> 100 µM,> 100 µM,> 100 µM,> 100 µM,> 100 µM,> 100 µM,> 100 µM,> 100 µM,> 100 µM,> 100 µM,> 100 µM,> 100 µM
CC1(C)CC(=O)C2=C(C1)NC(SSC1=C(C#N)C(c3ccccc3)C3=C(CC(C)(C)CC3=O)N1)=C(C#N)C2c1ccccc1 (configuration not stated),> 150 µg/mL,104 µg/mL,70.8 µg/mL,47.8 µg/mL,47.5 µg/mL,48.7 µg/mL,51.8 µg/mL,48.1 µg/mL,47.6 µg/mL,40.5 µg/mL,72.3 µg/mL,37.7 µg/mL,32 µg/mL,26.3 µg/mL,26.1 µg/mL,27.8 µg/mL,28.6 µg/mL,26.9 µg/mL,26.3 µg/mL,21 µg/mL
COc1cccc(NC(=O)c2sc3nc4c(cc3c2N)CCCC4)c1,18.2 µM,> 100 µM,43.8 µM,2.38 µM,> 100 µM,2.67 µM,> 100 µM,34 µM,> 100 µM,> 100 µM,0.59 µM,0.765 µM,2.6 µM,0.329 µM,0.504 µM,0.303 µM,0.45 µM,2.97 µM,0.391 µM,0.859 µM
COC(=O)[C@]12CC[C@@H](C)[C@H](C)[C@@H]1C1=CC[C@@H]3[C@@]4(C)CC(=O)[C@H](O)[C@@]5(C)COC(=C45)C[C@@]3(C)[C@]1(C)CC2,31.1 µM,39.1 µM,38.7 µM,34.8 µM,33.8 µM,30.2 µM,33.6 µM,38 µM,31.6 µM,32.8 µM,16.9 µM,18.7 µM,17.7 µM,19 µM,16.9 µM,16.6 µM,17.5 µM,20.4 µM,15.7 µM,16.9 µM
Nc1nc(N)[n+]([O-])c(N)c1NCO,> 100 µM,> 100 µM,> 100 µM,> 100 µM,> 100 µM,> 100 µM,> 100 µM,> 100 µM,> 100 µM,> 100 µM,,,,,,,,,,
O=C(c1cccs1)c1c(C(F)(F)F)n([O-])c2ccc(C(F)(F)F)cc2[n+]1=O,0.767 µM,0.498 µM,1.42 µM,0.744 µM,0.259 µM,0.914 µM,0.325 µM,1.31 µM,1.08 µM,0.318 µM,0.298 µM,0.174 µM,0.524 µM,0.258 µM,0.118 µM,0.483 µM,0.162 µM,0.596 µM,0.34 µM,0.169 µM
Nc1ccn(C=C=CCO)c(=O)n1,> 1000 µM,> 1000 µM,> 1000 µM,> 1000 µM,> 1000 µM,> 1000 µM,> 1000 µM,> 1000 µM,> 1000 µM,> 1000 µM,> 1000 µM,38.8 µM,> 1000 µM,> 1000 µM,> 1000 µM,> 1000 µM,> 1000 µM,> 1000 µM,> 1000 µM,> 1000 µM
CCOC(=O)c1cnc(SCc2ccc(Cl)c(Cl)c2)nc1N1CC1,13.6 µM,15 µM,18.9 µM,7 µM,15.2 µM,12.6 µM,13.8 µM,15.2 µM,19.5 µM,7.63 µM,2.95 µM,3.27 µM,5.01 µM,2.63 µM,2.74 µM,3.39 µM,1.74 µM,3.87 µM,4.23 µM,1.87 µM
CCCCCCCCCCCCc1ccc(C(=O)/C=C/C(=O)O)cc1,29.9 µM,5.11 µM,3.14 µM,3.47 µM,26.6 µM,28.7 µM,3.67 µM,3.64 µM,3.66 µM,3.01 µM,14 µM,0.99 µM,1.59 µM,1.91 µM,8.12 µM,14.5 µM,1.43 µM,1.82 µM,1.71 µM,1.63 µM
CCOC(=O)CCC(NC(=O)c1ccc(N=Cc2nc3cc(C(F)(F)F)ccc3nc2-c2ccccc2)cc1)C(=O)OCC (configuration not stated),50 µM and 40.6 µM,> 100 µM,> 100 µM,50 µM and > 100 µM,> 50 µM,50 µM and > 100 µM,> 100 µM,29.5 µM and 58.2 µM,40.7 µM and > 100 µM,> 100 µM,16.3 µM,> 100 µM,> 100 µM,> 100 µM,,> 100 µM,> 100 µM,21.6 µM,61.6 µM,> 100 µM
CCCCOC(=O)C(=O)C(CC(C(=O)Cc1ccccc1)c1ccccc1)C(=O)C=C(C)C (configuration not stated),> 100 µM,> 100 µM,> 100 µM,> 100 µM,> 100 µM,> 100 µM,> 100 µM,> 100 µM,> 100 µM,> 100 µM,,,,,,,,,,
COc1cc(CCc2cc(NC(=O)c3ccc(N4C[C@@H](C)N[C@@H](C)C4)cc3)n[nH]2)cc(OC)c1,> 10 µM and 20.3 µM,> 10 µM and 13.2 µM,> 10 µM and 21.3 µM,> 10 µM and 30 µM,> 10 µM and 23.9 µM,> 10 µM and 12.7 µM,> 10 µM and 15.6 µM,> 10 µM and 23.6 µM,> 10 µM and 21.2 µM,> 10 µM and 13.9 µM,> 10 µM and 7.2 µM,4.38 µM and 3.69 µM,,> 10 µM and 15.7 µM,> 10 µM and 6.92 µM,9.72 µM and 3.83 µM,6.49 µM and 3.5 µM,> 10 µM and 10.4 µM,> 10 µM and 6.82 µM,2.84 µM and 2.7 µM
O=[N+]([O-])c1ccc(Sc2ncccn2)c([N+](=O)[O-])c1,30.1 µM,25.4 µM,18.2 µM,10.3 µM,15.1 µM,22.4 µM,8.05 µM,5.77 µM,16.2 µM,7.36 µM,15.1 µM,2.32 µM,4.28 µM,3.38 µM,2.13 µM,10.4 µM,2.9 µM,2.57 µM,4.31 µM,1.93 µM
COc1cc(C(=O)O)c([N+](=O)[O-])c(OC)c1OC,> 100 µM,> 100 µM,> 100 µM,> 100 µM,> 100 µM,> 100 µM,> 100 µM,> 100 µM,> 100 µM,> 100 µM,,,,,,,,,,
O=[N+]([O-])c1ccc(N/N=C\c2cc(Cl)ccc2O)nc1,11.9 µM,> 100 µM,> 100 µM,12.1 µM,55.6 µM,8.25 µM,> 100 µM,23.6 µM,34.1 µM,5.45 µM,1.96 µM,0.51 µM,20.9 µM,0.42 µM,0.747 µM,1.81 µM,0.873 µM,2 µM,3.18 µM,0.3 µM
C[C@H]1[C@H](OC(=O)CCC(=O)O)O[C@@H]2O[C@]3(C)CC[C@H]4[C@H](C)CC[C@@H]1[C@@]24OO3,27.3 µM,16.5 µM,34.6 µM,15.2 µM,> 100 µM,11.3 µM,17.8 µM,11.6 µM,27.4 µM,7.38 µM,3.68 µM,0.308 µM,0.956 µM,0.415 µM,0.0886 µM,0.315 µM,0.282 µM,,0.474 µM,0.398 µM

# From PubChem BioAssay (NCI)
